Measured values as given in publication PMC12463534, “Exploring the Anticancer Properties of 4-Phenylthiazole-Based Ru(II) and Os(II) Metallacycles Featuring 1-Methylimidazole as N-Donor Functionality” (Bioinorganic Chemistry and Applications, 2025).

What was measured:
CT26 tumor = experiment: Anticancer activity in CT26 tumor-bearing BALB/c mice; type: in vivo; conditions: i.p. 50 mg/kg
Method: Figure 5 Anticancer activity of 1c and 3c in vivo. CT26-bearing BALB/c mice were treated i.p. with 50 mg/kg for five consecutive days for 2 weeks. (a) Impact on tumor growth; data are presented as mean ± SEM. […] On Day 15, most of the animals were sacrificed and tissues collected for further analyses. Of each group, 4 animals were kept to assess the impact on overall survival, which is shown in (b). Statistical significance was tested by log-rank test and Mantel–Cox post-test, ^∗p < 0.01. (c) The ruthenium levels measured by ICP-MS in the collected tissue samples of the mice, which were sacrificed 2 h after the last treatment.
(§1) CT26 cells (5 × 10^5 cells in 50-μL serum-free medium) were injected subcutaneously (s.c.) into the right flank of 8–16-week-old BALB/c mice (Envigo Laboratories, San Pietro Al Natisone, Italy). After 3 days, therapy treatment started on five consecutive days for 2 weeks. Animals were treated i.p. with 50 mg/kg 1c and 3c (all dissolved in 10% DMSO in 0.9% NaCl, 12 mice per group). The solvent control animals received 10% DMSO in 0.9% NaCl. Every day, the animals were monitored for the overall health conditions and tumor size was measured regularly by caliper measurement. Tumor volumes (mm^3) were calculated using following formula: length × width^2/2. In the overall survival arm of the experiment, mice were sacrificed by cervical dislocation in the case of a tumor length > 20 mm or tumor ulceration or a decreased body weight of ∼20%. Tumor growth and possible side effects of the treatment were evaluated by daily recording the tumor size by caliper measurement and parameters of the animal's overall health conditions. In the tissue sampling arm at the experiment, the mice were sacrificed by cervical dislocation 2 h after the last treatment. Tumors as well as organs were collected. Additionally, blood was drawn and incubated for 25 min to allow blood clotting. To isolate serum and blood pellets, the blood was centrifuged for 10 min at 17,900 g at room temperature. The supernatant characterized as serum was transferred to a new tube and centrifuged again to remove residual red blood cells. All collected samples were stored at −20°C and further processed for platinum measurements via ICP-MS.

SW480 cells = experiment: DCFH-DA assay, cellular ROS levels; type: cell-based, human; conditions: 2 h, concentration dependent
[1] = system: SW480 colon adenocarcinoma cells; experiment: MTT assay, inhibition of cancer cell growth, SW480; conditions: read-out: 50% inhibitory concentration SW480, exposure time 96 h
Method: (§2) CH1/PA-1 ovarian teratocarcinoma cells (CH1, RRID: CVCL_4992, provided by L. R. Kelland, CRC Center for Cancer Therapeutics, Institute of Cancer Research, Sutton, UK; confirmed by STR profiling as PA-1 ovarian teratocarcinoma cells at Multiplexion, Heidelberg, Germany), SW480 colon adenocarcinoma (RRID: CVCL_0546), and A549 lung adenocarcinoma cells (NCI-H2618, RRID: CVCL_A549; both cell lines were obtained from the American Type Culture Collection (ATCC), Manassas, VA, USA) were grown as adherent cultures in 75-cm^2 culture flasks (Starlab, Hamburg, Germany) by using minimal essential medium (MEM) supplemented with 1 mM sodium pyruvate, 4 mM L-glutamine, 1% (v/v) nonessential amino acids from 100-fold stock (all purchased from Sigma-Aldrich), and 10% heat-inactivated fetal bovine serum (Serana, Pessin, Germany).
(§3) The 3-(4,5-dimethylthiazol-2-yl)-2,5-diphenyl-2H tetrazolium bromide (MTT, Acros Organics, Geel, Belgium) assay was used to detect the cytotoxicity of the compounds after 96-h incubation. For this purpose, cells were harvested from culture flasks by trypsinization, seeded in 100-μL aliquots into 96-well microculture plates (Starlab, UK) in densities of 1 × 10^3 (CH1/PA-1), 2 × 10^3 (SW480), and 3 × 10^3 (A549) cells per well and incubated for 24 h prior to exposure to the test compounds. Stock solutions of test compounds were prepared in DMF, which were then diluted in MEM (not to exceed a final content of 0.5% v/v of organic solvent in the test plates), and serial dilutions were added in aliquots of 100 μL per well. […] After incubation for 4 h, the medium/MTT mixtures were removed, and the produced formazan crystals were dissolved in 150 μL DMSO per well. Optical densities at 550 nm were measured spectrophotometrically with a ELx808 Absorbance Microplate Reader (Bio-Tek, Winooski, VT, USA) by using a reference wavelength of 690 nm to correct for unspecific absorption.

[2] = Ruthenium levels in tissues by ICP-MS; type: in vivo; conditions: CT26-bearing mice, 2 h after last injection
Method: Tumor-specific organs and blood serum, harvested from the other animals 2 h after the last injection (Figure 5(c)), were measured for the average ruthenium content by inductively coupled plasma mass spectrometry (ICP-MS) of tissue homogenates.
as §1, with “In the overall survival arm of the experiment, mice were sacrificed by cervical dislocation in the case of a tumor length > 20 mm or tumor ulceration or a decreased body weight of ∼20%.” left out
The ruthenium concentration was determined by ICP-MS analysis. Ruthenium and rhenium standards were derived from LabKings (LabKings B.V., The Netherlands). The total ruthenium content was determined with a quadrupole-based ICP-MS instrument Agilent 7800 (Agilent Technologies, Tokyo, Japan) equipped with the Agilent SPS 4 autosampler (Agilent Technologies, Tokyo, Japan) and a MicroMist nebulizer at a sample uptake rate of approximately 0.2 mL·min^−1. […] Argon was used as plasma gas (15 L·min^−1) and as carrier gas (∼1.08 L·min^−1). The integration time was set to 0.1 s, and measurements were performed in 6 replicates with 100 sweeps. Rhenium served as internal standard for ruthenium.

[3] = system: HCT116 colorectal cancer cell line (2D); experiment: Resazurin assay, HCT116 2D (monolayer) culture; conditions: read-out: IC50 2D, resazurin assay, 96 h exposure
Method: Both models were investigated by the fluorimetric resazurin assay after 96-h exposure.
HCT116 colorectal carcinoma cells (RRID:CVCL_0291 from ATCC) were cultivated in McCoy's 5A medium, supplemented with 10% heat-inactivated fetal bovine serum and 4 mM L-glutamine.
For 2D experiments, HCT116 cells were harvested from culture flasks by trypsinization, seeded in 100-μL aliquots into 96-well microculture plates (CytoOne, TC-treated, from Starlab) in densities of 2 × 10^3 cells per well, and incubated for 24 h prior to exposure to the test compounds. […] Stock solutions of test compounds were prepared in DMF, which were then diluted in McCoy's 5A-supplemented medium (not to exceed a final content of 0.5% v/v of organic solvent in the test plates), and serial dilutions were added in aliquots of 100 μL per well. […] After incubation for 4 h, fluorescence was measured with a microplate reader (Bio-Tek, SynergyHT) at a wavelength of 530 nm, additionally using a reference wavelength of 620 nm.

[4] = system: A549 lung adenocarcinoma cells; experiment: MTT assay, inhibition of cancer cell growth, A549; conditions: read-out: 50% inhibitory concentration A549, exposure time 96 h
Method: as §2, §3

[5] = system: CH1/PA-1 ovarian teratocarcinoma cells; experiment: MTT assay, inhibition of cancer cell growth, CH1/PA-1; conditions: read-out: 50% inhibitory concentration CH1, exposure time 96 h
Method: as §2, §3

With `Cc1ccc(C(C)C)cc1.Cn1cc[n+]([Ru-]2[c]3cc(S(C)(=O)=O)ccc3-c3csc[n+]32)c1.O=[N+]([O-])[O-]` [Compound 3c, [((3-κN)-1-Methylimidazole)(4-(4-(methylsulfonyl)phenyl)thiazolato-κN,κC2′)(η^6-p-cymene)ruthenium(II)] Nitrate] the “Impact on overall survival” value (CT26 tumor; 4 mice per group, log-rank test) was “significantly prolonged overall survival”, the “Impact on tumor volume (anticancer activity)” value (CT26 tumor; 5 times a week for two weeks, did not reach statistical significance) was “slight anticancer activity” and the “Survival of one animal” value (CT26 tumor; one animal) was 48 days. For the same compound, the “Effect on intracellular ROS levels” value (SW480 cells) was “constantly decrease ROS levels with increasing concentrations”, the IC50 [1] was greater than 200 µM and the “Ruthenium level in liver” value [2] was roughly 20 mg/kg. For the same compound, the “Ruthenium level in tumor” value [2] was roughly 1 mg/kg, the IC50 [3] was greater than 200 µM and the IC50 [4] was greater than 200 µM. It also gave an IC50 [5] of 102 ± 11 µM.
